Test results: US10844051B2, “Substituted oxazoles for the treatment of cancer” (THE ROYAL INSTITUTION FOR THE ADCANCEMENT OF …, priority 2015, dated 2020)

Test system: hSTING and/or mSTING
Test: hSTING- or mSTING-dependent ISRE-luc reporter assay in 293T cells
Type: cell-based
Settings: 24 hours
Protocol: ISRE-luc (reporter), pRL-TK (internal control) and hSTING- or mSTING-expressing plasmids were transiently transfected into 293T cells. Cells were exposed to DMSO vehicle control or compounds for 24 hours. Experiments were done in triplicate.

| Compound | activation of hSTING and/or mSTING in ISRE-luc reporter assay | further results |
| --- | --- | --- |
| O=C(c1ccc(F)cc1)N1CCN(Cc2nc(-c3cccc(F)c3)c(-c3cccc(F)c3)[nH]2)CC1 [Compound 1179] |  | activation of hSTING and/or mSTING in ISRE-luc reporter assay (10 μM): activate hSTING and/or mSTING |
| N#Cc1ccccc1CN1CCN(Cc2nc(-c3ccccc3)c(-c3ccccc3)o2)CC1 [Compound 1364] | activate hSTING and/or mSTING |  |
| C=CCN(CCc1c[nH]c2ccccc12)Cc1nc(-c2ccccc2)c(-c2ccccc2)o1 [Compound 1372] | activate hSTING and/or mSTING |  |
| N#CCN(CCc1c[nH]c2ccccc12)Cc1nc(-c2ccccc2)c(-c2ccccc2)o1 [Compound 1188] | activate hSTING and/or mSTING |  |
| Cc1cccnc1CN1CCN(Cc2nc(-c3ccccc3)c(-c3ccccc3)o2)CC1 [Compound 1366] | activate hSTING and/or mSTING |  |
| O=[N+]([O-])c1ccccc1S(=O)(=O)N(CCc1c[nH]c2ccccc12)Cc1nc(-c2ccccc2)c(-c2ccccc2)[nH]1 [Compound 1373] | activate hSTING and/or mSTING |  |
| Fc1cccc(-c2nc(CN3CCN(c4ccc(Br)cc4)CC3)[nH]c2-c2cccc(F)c2)c1 [Compound 1174] |  | activation of hSTING and/or mSTING in ISRE-luc reporter assay (10 μM): activate hSTING and/or mSTING |
| Fc1ccc(CN2CCN(Cc3nc(-c4ccccc4)c(-c4ccccc4)o3)CC2)cc1 [Compound 1288] | activate hSTING and/or mSTING |  |
| Fc1cccc(-c2nc(/C=C/c3cc(C(F)(F)F)cc(C(F)(F)F)c3)oc2-c2cccc(F)c2)c1 [Compound 1012] |  | activation of hSTING and/or mSTING in ISRE-luc reporter assay (10 μM): activate hSTING and/or mSting |
| Fc1cccc(-c2nc(CNCc3ccc4[nH]ccc4c3)[nH]c2-c2cccc(F)c2)c1 [Compound 1042] | activate hSTING and/or mSTING |  |
| Fc1cccc(-c2nc(CN3CCN(Cc4ccccc4)CC3)[nH]c2-c2cccc(F)c2)c1 [Compound 1175] |  | activation of hSTING and/or mSTING in ISRE-luc reporter assay (10 μM): activate hSTING and/or mSTING |
| COc1cccc(N2CCN(Cc3nc(-c4ccccc4)c(-c4ccccc4)o3)CC2)c1 [Compound 1142] | activate hSTING and/or mSTING |  |
| c1ccc(-c2nc(CN3CCC(c4c[nH]c5ccccc45)CC3)oc2-c2ccccc2)cc1 [Compound 1124] | activate hSTING and/or mSTING |  |
| Fc1cccc(-c2nc(/C=C/c3ccsc3)[nH]c2-c2cccc(F)c2)c1 [Compound 1037] |  | activation of hSTING and/or mSTING in ISRE-luc reporter assay (10 μM): activate hSTING and/or mSting |
| FC(F)(F)c1cccc(CCc2nc(-c3ccccc3)c(-c3ccccc3)o2)c1 [Compound 1011] |  | activation of hSTING and/or mSTING in ISRE-luc reporter assay (10 μM): activate hSTING and/or mSting |
| COc1ccc2[nH]cc(CCNCc3nc(-c4cccc(F)c4)c(-c4cccc(F)c4)[nH]3)c2c1 [Compound 1041] | activate hSTING and/or mSTING |  |
| N#Cc1ccc(N2CCN(Cc3nc(-c4ccccc4)c(-c4ccccc4)[nH]3)CC2)cc1 [Compound 1120] | activate hSTING and/or mSTING |  |
| COCCN1CCN(Cc2nc(-c3ccccc3)c(-c3ccccc3)o2)CC1 [Compound 1370] | activate hSTING and/or mSTING |  |
| Fc1cccc(-c2nc(/C=C/c3ccsc3)oc2-c2cccc(F)c2)c1 [Compound 1036] |  | activation of hSTING and/or mSTING in ISRE-luc reporter assay (10 μM): activate hSTING and/or mSting |
| O=C(c1ccccc1)N1CCN(Cc2nc(-c3cccc(F)c3)c(-c3cccc(F)c3)[nH]2)CC1 [Compound 1121] | activate hSTING and/or mSTING |  |
| c1ccc(-c2nc(CN3CCN(Cc4ccccn4)CC3)oc2-c2ccccc2)cc1 [Compound 1285] | activate hSTING and/or mSTING |  |
| COc1cccc(CN2CCN(Cc3nc(-c4ccccc4)c(-c4ccccc4)o3)CC2)c1 [Compound 1289] | activate hSTING and/or mSTING |  |
| c1ccc(-c2nc(CN3CCN(c4ccccc4)CC3)[nH]c2-c2ccccc2)cc1 [Compound 1099] | activate hSTING and/or mSTING |  |
| Oc1ccc(N2CCN(Cc3nc(-c4cccc(F)c4)c(-c4cccc(F)c4)[nH]3)CC2)cc1 [Compound 1139] | activate hSTING and/or mSTING |  |
| COc1ccc(CN2CCN(Cc3nc(-c4ccccc4)c(-c4ccccc4)o3)CC2)cc1 [Compound 1287] | activate hSTING and/or mSTING |  |
| c1ccc(-c2nc(CN3CCN(c4ccccn4)CC3)oc2-c2ccccc2)cc1 [Compound 1227] |  | activation of hSTING and/or mSTING in ISRE-luc reporter assay (20 μM): activate hSTING and/or mSTING |
| Oc1ccccc1N1CCN(Cc2nc(-c3ccccc3)c(-c3ccccc3)o2)CC1 [Compound 1184] |  | activation of hSTING and/or mSTING in ISRE-luc reporter assay (20 μM): activate hSTING and/or mSTING |
| Cn1cc(CNCc2nc(-c3cccc(F)c3)c(-c3cccc(F)c3)[nH]2)c2ccccc21 [Compound 1096] | activate hSTING and/or mSTING |  |

| Compound | activation of hSTING and/or mSTING in ISRE-luc reporter assay | further results |
| --- | --- | --- |
| COc1cccc(N2CCN(Cc3nc(-c4cccc(F)c4)c(-c4cccc(F)c4)[nH]3)CC2)c1 [Compound 1141] | activate hSTING and/or mSTING |  |
| Fc1ccccc1CN1CCN(Cc2nc(-c3ccccc3)c(-c3ccccc3)o2)CC1 [Compound 1357] | activate hSTING and/or mSTING |  |
| O=C(c1ccco1)N1CCN(Cc2nc(-c3ccccc3)c(-c3ccccc3)[nH]2)CC1 [Compound 1125] | activate hSTING and/or mSTING |  |
| N#Cc1ccc(N2CCN(Cc3nc(-c4cccc(F)c4)c(-c4cccc(F)c4)[nH]3)CC2)cc1 [Compound 1104] | activate hSTING and/or mSTING |  |
| Brc1ccc(N2CCN(Cc3nc(-c4ccccc4)c(-c4ccccc4)o3)CC2)cc1 [Compound 1097] | activate hSTING and/or mSTING |  |
| O=C(c1cccc(F)c1)N1CCN(Cc2nc(-c3ccccc3)c(-c3ccccc3)o2)CC1 [Compound 1180] |  | activation of hSTING and/or mSTING in ISRE-luc reporter assay (20 μM): activate hSTING and/or mSTING |
| COc1ccc2[nH]cc(CCN(Cc3nc(-c4cccc(F)c4)c(-c4cccc(F)c4)[nH]3)S(=O)(=O)c3ccccc3[N+](=O)[O-])c2c1 [Compound 1039] | activate hSTING and/or mSTING |  |
| O=C(c1ccccc1)N1CCN(Cc2nc(-c3ccccc3)c(-c3ccccc3)o2)CC1 [Compound 1123] | activate hSTING and/or mSTING |  |
| Fc1cccc(-c2nc(/C=C/c3ccoc3)oc2-c2cccc(F)c2)c1 [Compound 1035] |  | activation of hSTING and/or mSTING in ISRE-luc reporter assay (10 μM): activate hSTING and/or mSting |
| O=C(c1cccc(F)c1)N1CCN(Cc2nc(-c3cccc(F)c3)c(-c3cccc(F)c3)[nH]2)CC1 [Compound 1177] |  | activation of hSTING and/or mSTING in ISRE-luc reporter assay (10 μM): activate hSTING and/or mSTING |
| O=C(c1ccco1)N1CCN(Cc2nc(-c3ccccc3)c(-c3ccccc3)o2)CC1 [Compound 1126] | activate hSTING and/or mSTING |  |
| COc1cccc(N2CCN(Cc3nc(-c4ccccc4)c(-c4ccccc4)[nH]3)CC2)c1 [Compound 1143] | activate hSTING and/or mSTING |  |
| O=C(c1ccccc1)N1CCN(Cc2nc(-c3ccccc3)c(-c3ccccc3)[nH]2)CC1 [Compound 1122] | activate hSTING and/or mSTING |  |
| CNC(=O)c1ccc(C2CCN(Cc3nc(-c4cccc(F)c4)c(-c4cccc(F)c4)[nH]3)CC2)cc1 [Compound 1140] | activate hSTING and/or mSTING |  |
| N#Cc1ccc(CN2CCN(Cc3nc(-c4ccccc4)c(-c4ccccc4)o3)CC2)cc1 [Compound 1361] | activate hSTING and/or mSTING |  |
| Fc1cccc(-c2nc(/C=C/c3cccs3)oc2-c2cccc(F)c2)c1 [Compound 1013] |  | activation of hSTING and/or mSTING in ISRE-luc reporter assay (10 μM): activate hSTING and/or mSting |
| OC1(c2cccc(C(F)(F)F)c2)CCN(Cc2nc(-c3ccccc3)c(-c3ccccc3)o2)CC1 [Compound 1127] | activate hSTING and/or mSTING |  |
| OC1(c2cccc(C(F)(F)F)c2)CCN(Cc2nc(-c3ccccc3)c(-c3ccccc3)[nH]2)CC1 [Compound 1129] | activate hSTING and/or mSTING |  |
| Oc1ccccc1N1CCN(Cc2nc(-c3cccc(F)c3)c(-c3cccc(F)c3)[nH]2)CC1 [Compound 1183] |  | activation of hSTING and/or mSTING in ISRE-luc reporter assay (20 μM): activate hSTING and/or mSTING |
| COc1cccc(-c2nc(CCc3cc(C(F)(F)F)cc(C(F)(F)F)c3)oc2-c2cccc(OC)c2)c1 [Compound 1033] |  | activation of hSTING and/or mSTING in ISRE-luc reporter assay (10 μM): activate hSTING and/or mSting |
| Clc1ccc(N2CCN(Cc3nc(-c4ccccc4)c(-c4ccccc4)[nH]3)CC2)cc1Cl [Compound 1098] | activate hSTING and/or mSTING |  |
| Oc1cccc(N2CCN(Cc3nc(-c4ccccc4)c(-c4ccccc4)o3)CC2)c1 [Compound 1182] |  | activation of hSTING and/or mSTING in ISRE-luc reporter assay (20 μM): activate hSTING and/or mSTING |
| Fc1cccc(CN2CCN(Cc3nc(-c4ccccc4)c(-c4ccccc4)o3)CC2)c1 [Compound 1286] | activate hSTING and/or mSTING |  |
| c1ccc(-c2nc(CNCCc3c[nH]c4ccccc34)[nH]c2-c2ccccc2)cc1 [Compound 1369] | activate hSTING and/or mSTING |  |
| N#Cc1cccc(CN2CCN(Cc3nc(-c4ccccc4)c(-c4ccccc4)o3)CC2)c1 [Compound 1360] | activate hSTING and/or mSTING |  |
| OC1(c2ccccc2)CCN(Cc2nc(-c3ccccc3)c(-c3ccccc3)o2)CC1 [Compound 1103] | activate hSTING and/or mSTING |  |
| O=[N+]([O-])c1ccccc1S(=O)(=O)N(Cc1ccc2[nH]ccc2c1)Cc1nc(-c2cccc(F)c2)c(-c2cccc(F)c2)[nH]1 [Compound 1040] | activate hSTING and/or mSTING |  |
